Data reported in ChEMBL document CHEMBL1133222 (2000).

How the values were obtained:
[1] = molecular target: T1, Endothelin-1 receptor (Rattus norvegicus) (UniProt P26684); experiment: Inhibition of (125 I)-endothelin 1 binding to endothelin A receptor in rat ventricle
T1 sequence (whole entry): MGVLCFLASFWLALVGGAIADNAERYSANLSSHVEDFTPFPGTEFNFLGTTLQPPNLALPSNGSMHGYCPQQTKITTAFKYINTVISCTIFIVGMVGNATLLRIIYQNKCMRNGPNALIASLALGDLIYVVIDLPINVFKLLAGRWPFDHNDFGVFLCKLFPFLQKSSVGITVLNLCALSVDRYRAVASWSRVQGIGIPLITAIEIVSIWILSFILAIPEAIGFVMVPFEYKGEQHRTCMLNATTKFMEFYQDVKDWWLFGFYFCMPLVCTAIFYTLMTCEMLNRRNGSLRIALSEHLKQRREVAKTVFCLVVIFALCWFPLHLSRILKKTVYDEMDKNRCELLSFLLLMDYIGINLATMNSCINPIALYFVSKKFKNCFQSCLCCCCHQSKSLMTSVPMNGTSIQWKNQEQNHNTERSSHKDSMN

[2] = molecular target: T2, Endothelin receptor type B (Rattus norvegicus) (UniProt P21451); settings: Cerebellum
T2 sequence (whole entry): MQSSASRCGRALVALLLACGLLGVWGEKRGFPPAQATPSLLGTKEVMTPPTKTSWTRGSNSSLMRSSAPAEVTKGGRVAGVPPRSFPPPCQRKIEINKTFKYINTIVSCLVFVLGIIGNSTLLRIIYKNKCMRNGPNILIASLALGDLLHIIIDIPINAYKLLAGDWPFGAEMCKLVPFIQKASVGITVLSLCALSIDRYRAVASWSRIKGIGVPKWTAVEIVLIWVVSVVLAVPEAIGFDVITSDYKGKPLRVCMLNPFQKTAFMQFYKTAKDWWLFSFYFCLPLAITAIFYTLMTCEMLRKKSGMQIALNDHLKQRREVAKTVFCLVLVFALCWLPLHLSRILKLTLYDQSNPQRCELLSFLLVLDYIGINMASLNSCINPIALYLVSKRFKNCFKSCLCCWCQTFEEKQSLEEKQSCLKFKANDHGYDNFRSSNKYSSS
Description: Inhibition of (125 I)-endothelin 1 binding to endothelin B receptor in rat cerebellum

[3] = tested on: Mus musculus; experiment: Effective dose for ET-1 induced death in mice after peroral administration; type: functional; settings: po
[4] = tested on: Rattus norvegicus; experiment: Effective dose in rat after intravenous administration; type: functional

Row | Binding affinity [1] [nM] | Binding affinity [2] [nM] | SMILES | ED50 [3] [mg/kg] | ED50 [4] [mg/kg]
1 | 1 | 69 | CCc1cc2c(cc1Cn1c(C(=O)O)c(Cc3ccc(OC)cc3)c(=O)c3ccccc31)OCO2 |  | 
2 | 29 | 1900 | O=C(O)c1c(Cc2ccoc2)c(=O)c2ccccc2n1Cc1cc2c(cc1Cl)OCO2 |  | 
3 | 8700 | 29000 | O=C(O)c1cc(=O)c2ccccc2n1Cc1cc2c(cc1Cl)OCO2 |  | 
4 | 10.7 | 606 | COc1ccc(Cc2c(C(=O)O)n(Cc3ccc4c(c3)OCO4)c3ccccc3c2=O)cc1 |  | 
5 | 5.6 | 190 | C=Cc1ccc(Cc2c(C(=O)O)n(Cc3cc4c(cc3Cl)OCO4)c3ccccc3c2=O)cc1 |  | 
6 | 4.1 | 157 | O=C(O)c1c(Cc2ccccc2)c(=O)c2ccccc2n1Cc1cc2c(cc1Cl)OCO2 |  | 
7 | 8.2 | 747 | COC(=O)c1cccc(Cc2c(C(=O)O)n(Cc3cc4c(cc3Cl)OCO4)c3ccccc3c2=O)c1 |  | 
8 | 5.7 | 1890 | O=C(O)c1c(Cc2ccco2)c(=O)c2ccccc2n1Cc1cc2c(cc1Cl)OCO2 |  | 
9 | 20.4 | 1600 | O=C(O)c1c(Cc2cccnc2)c(=O)c2ccccc2n1Cc1cc2c(cc1Cl)OCO2 |  | 
10 | 93 | 9500 | O=C(O)CCCCCc1c(C(=O)O)n(Cc2cc3c(cc2Cl)OCO3)c2ccccc2c1=O |  | 
11 | 4.7 | 5000 | CCOC(=O)C[C@H]1CC[C@H](Cc2c(C(=O)O)n(Cc3cc4c(cc3Cl)OCO4)c3ccccc3c2=O)CC1 |  | 
12 | 10.9 | 570 | O=C(O)c1c(Cc2cccc(Cl)c2Cl)c(=O)c2ccccc2n1Cc1cc2c(cc1Cl)OCO2 |  | 
13 | 11000 | 12000 | CCCCc1cn(Cc2ccc(-c3ccccc3-n3cnnn3)cc2)c2ccc(CSc3ccccn3)cc2c1=O |  | 
14 | 3 | 500 | O=C(O)c1cccc(Cc2c(C(=O)O)n(Cc3cc4c(cc3Cl)OCO4)c3ccccc3c2=O)c1 |  | 
15 | 7.8 | 244 | COc1ccc(Cc2c(C(=O)O)n(Cc3cc4c(cc3Br)OCO4)c3ccccc3c2=O)cc1 |  | 
16 | 1.6 | 216 | COc1ccc(Cc2c(C(=O)O)n(Cc3cc4c(cc3Cl)OCO4)c3ccccc3c2=O)cc1 |  | 

The next lines start with the compound.

Row | SMILES | Binding affinity [1] [nM] | Binding affinity [2] [nM] | ED50 [3] [mg/kg] | ED50 [4] [mg/kg]
17 | CCc1cc2c(cc1Cn1c(C(=O)[O-])c(Cc3cccc(C(=O)[O-])c3)c(=O)c3ccccc31)OCO2.[K+].[K+] | 0.69 | 571 | 10 | 0.1
18 | O=C(O)c1c(CC2CCCCC2)c(=O)c2ccccc2n1Cc1cc2c(cc1Cl)OCO2 | 1.1 | 100 |  | 
19 | COc1ccc(Cn2c(C(=O)O)c(Cc3ccc4c(c3)OCO4)c(=O)c3ccccc32)cc1 | 255 | 16000 |  | 
20 | COc1ccc(Cc2c(C(=O)O)n(Cc3cc(Br)c4c(c3)OCO4)c3ccccc3c2=O)cc1 | 18.9 |  |  | 
21 | COc1ccc(Cc2c(C(=O)O)n(Cc3cc4c(cc3Cl)OCO4)c3ccccc3c2=O)c(OCC(=O)O)c1 | 54.3 | 549 |  | 
22 | COc1ccc(Cc2c(C(=O)O)n(Cc3cc(OC)c4c(c3)OCO4)c3ccccc3c2=O)cc1 | 9.5 | 244 |  | 
23 | C=Cc1cc2c(cc1Cn1c(C(=O)O)c(Cc3ccc(OC)cc3)c(=O)c3ccccc31)OCO2 | 1.8 | 70 |  | 
24 | O=C(O)c1ccc(Cc2c(C(=O)O)n(Cc3cc4c(cc3Cl)OCO4)c3ccccc3c2=O)cc1 | 4.6 | 17100 |  | 
25 | O=C(O)c1c(Cc2ccc(Br)cc2)c(=O)c2ccccc2n1Cc1cc2c(cc1Cl)OCO2 | 5.7 | 166 |  | 
26 | O=C(O)C[C@H]1CC[C@H](Cc2c(C(=O)O)n(Cc3cc4c(cc3Cl)OCO4)c3ccccc3c2=O)CC1 | 3.4 | 6630 |  | 
27 | COc1cc(Cc2c(C(=O)O)n(Cc3cc4c(cc3Cl)OCO4)c3ccccc3c2=O)cc(OC)c1OC | 1.9 | 789 |  | 
28 | CCCCc1cn(Cc2ccc(-c3ccccc3C(=O)O)cc2)c2ccc(Cn3ccc4ccccc43)cc2c1=O | 7600 | 110000 |  | 
